# Assay results reported in patent publication EP3212201B1, “NUCLEOSIDE KINASE INHIBITORS” (BCI Pharma, priority 2014, dated 2016).
# Experiments:
# PRKCB1 (PKC beta I) = PRKCB1 (PKC beta I) (Homo sapiens, UniProt P05771); experiment: FRET-based coupled-enzyme protein kinase inhibition assay; assay type: biochemical; settings: compound at 10 µM, 1% DMSO
# Method: (§1) A biochemical assay was then performed in order to measure the protein kinase inhibition. It employed a fluorescence-based coupled-enzyme format and was based on the differential sensitivity of phosphorylated and non-phosphorylated peptides to proteolytic cleavage.
# (§2) Peptide substrates were labeled with two fluorophores. The two fluorohores used were coumarin (donor) and fluorecein (acceptor), and each of the peptides was bearing one at one end, and one at the other end, which made up fluorescence resonance energy transfer (FRET) pair peptides.
# (§3) In a primary reaction, the FRET-peptides were submitted to a phosphorylation reaction, in which one of adenosine triphosphate (ATP)'s phosphate groups was transferred to the peptide in the presence of kinase. When kinase inhibition takes place, the peptide will not be phosphorylated. In a secondary reaction, both the phosphorylated FRET-peptides and the non-phosphorylated FRET-peptides were reacted with a development reagent. It has been observed that non-phosphorylated FRET-peptides were cleaved, whereas the phosphorylted FRET-peptide remained intact.
# (§4) Cleavage disrupts FRET between the donor (i.e., coumarin) and acceptor (i.e., fluorescein) fluorophores on the FRET-peptide, whereas uncleaved, phosphorylated FRET-peptides maintain FRET. A ratiometric method, which calculates the Emission Ratio of donor emission to acceptor emission after excitation of the donor fluorophore at 400 nm, is used to quantitate reaction progress, as shown in the equation below. [formula]
# (§5) A significant benefit of this ratiometric method for quantitating reaction progress is the elimination of well-to-well variations in FRET-peptide concentration and signal intensities. As a result, the assay yields very high Z'factor values (>0.7) at a low percent phosphorylation. Both cleaved and uncleaved FRET-peptides contribute to the fluorescence signals and therefore to the Emission Ratio. The extent of phosphorylation of the FRET-peptide can be calculated from the Emission Ratio. The Emission Ratio will remain low if the FRET-peptide is phosphorylated (i.e., no kinase inhibition) and will be high if the FRET-peptide is non-phosphorylated (i.e., kinase inhibition).
# (§6) The Test Compounds were screened in 1% DMSO. For 10 point titrations, 3-fold serial dilutions were prepared from the starting concentration.
# (§7) All Peptide/Kinase Mixtures were diluted to a 2X working concentration in the appropriate Kinase Buffer (50 mM HEPES pH 7.5, 0.01% BRIJ-35, 10 mM MgCl2, 1 mM […]).
# (§8) All ATP Solutions were diluted to a 4X working concentration in Kinase Buffer. ATP Km apparent was previously determined using another assay.
# The Development Reagent was diluted in Development Buffer. For 5 mL 10X Novel PKC Lipid Mix, 10X Novel PKC Lipid Mix being composed of 2 mg/ml Phosphatidyl Serine, 0.2 mg/ml DAG in 20 mM HEPES, pH 7.4, 0.3% CHAPS, 10 mg of Phosphatidyl Serine (Avanti Polar Lipids Part# 8400032C or 840039C) and 1 mg DAG (Avanti Polar Lipids Part# 800811C) were added to a glass tube.
# The chloroform was removed from the lipid mixture by evaporating to a clear, thin film under a stream of nitrogen. Continuous rotation of the tube, at an angle to ensure maximum surface area of the lipid solution, has promoted the thinnest film. 5mL resuspension buffer, 20 mM HEPES, 0.3% CHAPS, pH 7.4, were added to the dried lipid mix, which was then gently heated to 50-60°C for 1-2 minutes and vortexed in short intervals until the lipids are dissolved to a clear or slightly hazy solution. The lipids were typically in solution after 2-3 heat-vortex cycles. The solution was cooled to room temperature, aliquoted into single use volumes and stored at -20 °C.
# (§9) 2.5 µL - 4X Test Compound or 100 nL 100X plus 2.4 µL kinase buffer were mixed together with 2. 5 µL - 2X Peptide/Kinase Mixture and 3. 2.5 µL - 4X ATP Solution.
# The solution was plate-shaked for 30 seconds, then incubated 60 minutes at room temperature for kinase reaction. […]
# JAK3 = molecular target: T1, JAK3 (Homo sapiens, UniProt P52333); experiment: as above; assay type: biochemical; settings: compound at 10 µM, 1% DMSO
# T1 sequence (P52333 1-1124): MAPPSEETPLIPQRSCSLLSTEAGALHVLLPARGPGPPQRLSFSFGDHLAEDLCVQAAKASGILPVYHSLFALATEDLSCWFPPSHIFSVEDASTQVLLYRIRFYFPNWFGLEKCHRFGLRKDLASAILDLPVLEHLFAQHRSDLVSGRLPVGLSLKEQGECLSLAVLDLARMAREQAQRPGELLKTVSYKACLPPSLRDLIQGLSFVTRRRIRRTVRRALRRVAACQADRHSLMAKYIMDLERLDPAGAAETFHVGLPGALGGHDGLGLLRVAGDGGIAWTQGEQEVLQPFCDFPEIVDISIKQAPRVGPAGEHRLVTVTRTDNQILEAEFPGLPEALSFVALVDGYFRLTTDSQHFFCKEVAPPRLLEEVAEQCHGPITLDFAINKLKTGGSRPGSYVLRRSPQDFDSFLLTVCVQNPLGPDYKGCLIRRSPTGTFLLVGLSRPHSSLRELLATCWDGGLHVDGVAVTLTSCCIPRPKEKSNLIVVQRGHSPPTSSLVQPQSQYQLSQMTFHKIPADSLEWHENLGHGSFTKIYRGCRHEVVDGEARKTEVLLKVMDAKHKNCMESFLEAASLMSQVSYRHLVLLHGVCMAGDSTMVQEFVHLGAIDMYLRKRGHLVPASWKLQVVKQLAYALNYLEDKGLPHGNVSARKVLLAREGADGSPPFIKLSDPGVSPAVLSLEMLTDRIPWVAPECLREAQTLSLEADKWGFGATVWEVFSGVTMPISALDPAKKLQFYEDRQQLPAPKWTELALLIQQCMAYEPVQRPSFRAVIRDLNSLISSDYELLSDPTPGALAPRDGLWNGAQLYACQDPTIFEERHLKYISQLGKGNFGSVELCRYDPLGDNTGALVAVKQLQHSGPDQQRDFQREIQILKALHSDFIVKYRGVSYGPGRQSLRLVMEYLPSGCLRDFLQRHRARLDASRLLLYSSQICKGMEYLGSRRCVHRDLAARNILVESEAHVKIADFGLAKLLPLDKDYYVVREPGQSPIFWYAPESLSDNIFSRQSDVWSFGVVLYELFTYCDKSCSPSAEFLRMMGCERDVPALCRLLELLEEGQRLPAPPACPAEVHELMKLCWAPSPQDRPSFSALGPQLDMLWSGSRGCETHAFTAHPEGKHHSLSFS
# Method: as §1, §2, §3, §4, §5, §6, §7, §8, §9
# The solution was plate-shaked for 30 seconds, then incubated 60 minutes at room temperature for kinase reaction. 5 µL of Development Reagent Solution were then added, followed by a 30-second plate shake and a 60-minute Development Reaction incubation at room temperature. The results were read on a fluorescence plate reader and the data was analyzed.
# The compounds that show the highest Emission Ratio are the ones that also show the highest protein kinase inhibition properties.
# Chain of PRKCB1 (PKC beta I) (P05771 whole entry, species assumed): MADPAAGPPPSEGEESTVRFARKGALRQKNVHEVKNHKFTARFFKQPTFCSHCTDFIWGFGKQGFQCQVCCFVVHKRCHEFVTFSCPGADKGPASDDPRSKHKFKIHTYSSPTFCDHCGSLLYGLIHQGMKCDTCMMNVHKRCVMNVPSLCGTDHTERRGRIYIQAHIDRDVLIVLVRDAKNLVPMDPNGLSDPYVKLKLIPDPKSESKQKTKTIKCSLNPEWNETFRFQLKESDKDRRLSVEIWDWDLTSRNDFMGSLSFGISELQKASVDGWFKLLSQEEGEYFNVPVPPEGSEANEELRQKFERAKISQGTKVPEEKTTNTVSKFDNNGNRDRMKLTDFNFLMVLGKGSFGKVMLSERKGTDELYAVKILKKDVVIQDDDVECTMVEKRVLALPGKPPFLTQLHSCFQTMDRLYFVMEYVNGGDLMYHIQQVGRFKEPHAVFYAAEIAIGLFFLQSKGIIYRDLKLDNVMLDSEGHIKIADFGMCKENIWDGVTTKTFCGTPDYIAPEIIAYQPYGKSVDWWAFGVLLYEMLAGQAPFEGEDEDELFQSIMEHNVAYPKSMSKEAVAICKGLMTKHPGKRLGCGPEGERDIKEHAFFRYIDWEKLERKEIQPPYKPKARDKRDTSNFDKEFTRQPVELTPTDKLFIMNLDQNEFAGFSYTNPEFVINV
SMILES,inhibition at 10 µM (PRKCB1 (PKC beta I)) [%],inhibition at 10 µM (JAK3) [%]
Nc1ncnc2c1ncn2[C@@H]1O[C@H](COC(=O)NCCCc2nc3ccccc3[nH]2)[C@@H](O)[C@H]1O [Compound C1],6,-2
C[C@@H](NC(=O)OC[C@H]1O[C@@H](n2cnc3c(N)ncnc32)[C@H](O)[C@@H]1O)c1ccc(Cl)cc1 [Compound C4],-1,6
Nc1ncnc2c1ncn2[C@@H]1O[C@H](COC(=O)NC[C@H](O)CO)[C@@H](O)[C@H]1O [Compound C8],-11,-2
Nc1ncnc2c1ncn2[C@@H]1O[C@H](COC(=O)N2CCC[C@H]2CO)[C@@H](O)[C@H]1O [Compound C9],-6,-8
Nc1ncnc2c1ncn2[C@@H]1O[C@H](COC(=O)N[C@@H]2CCN(Cc3ccccc3)C2)[C@@H](O)[C@H]1O [Compound C10],5,-2
Nc1ncnc2c1ncn2[C@@H]1O[C@H](COC(=O)N2CCN(Cc3ccccc3)CC2CO)[C@@H](O)[C@H]1O (some centres unmarked) [Compound C13],7,1
CC(C)N1CCC(NC(=O)OC[C@H]2O[C@@H](n3cnc4c(N)ncnc43)[C@H](O)[C@@H]2O)CC1 [Compound C19],4,-2
Nc1ncnc2c1ncn2[C@@H]1O[C@H](COC(=O)NCCN2CCCC2=O)[C@@H](O)[C@H]1O [Compound C22],-8,-8
Nc1ncnc2c1ncn2[C@@H]1O[C@H](COC(=O)N2CCN(CCc3ccccc3)CC2)[C@@H](O)[C@H]1O [Compound C26],0,-7
CN1CCN(CCNC(=O)OC[C@H]2O[C@@H](n3cnc4c(N)ncnc43)[C@H](O)[C@@H]2O)CC1 [Compound C46],0,2
Nc1ncnc2c1ncn2[C@@H]1O[C@H](COC(=O)N2CCC(Cc3ccc(F)cc3)C2)[C@@H](O)[C@H]1O (some centres unmarked) [Compound C66],1,0
N#CCCN1CCN(C(=O)OC[C@H]2O[C@@H](n3cnc4c(N)ncnc43)[C@H](O)[C@@H]2O)CC1 [Compound C70],-5,-8
CN(C)CCNC(=O)OC[C@H]1O[C@@H](n2cnc3c(N)ncnc32)[C@H](O)[C@@H]1O [Compound C85],-1,-12
Nc1ncnc2c1ncn2[C@@H]1O[C@H](COC(=O)N2CCN(C(=O)N3CCOCC3)CC2)[C@@H](O)[C@H]1O [Compound C89],-6,2
CS(=O)(=O)N1CC2(CCN(C(=O)OC[C@H]3O[C@@H](n4cnc5c(N)ncnc54)[C@H](O)[C@@H]3O)CC2)c2ccccc21 [Compound C98],-1,-1
Nc1ncnc2c1ncn2[C@@H]1O[C@H](COC(=O)N2CCS(=O)(=O)CC2)[C@@H](O)[C@H]1O [Compound C100],1,-2
